Test results published in article PMC6892409, “Phenotypic proteomic profiling identifies a landscape of targets for circadian clock–modulating compounds” (Life Science Alliance, 2019).
Like-named read-outs stand apart in the source and are kept apart here.

Experiments:
Synechococcus elongatus = assay: Luminescence rhythm period assay in cyanobacteria; details: 3, 8, 16 and 32 μM
Experimental: The D730nm was maintained between 0.27 and 0.45 by dilution with fresh medium.
Circadian period–altering compounds (dissolved in DMSO, final 0.5% DMSO) were then added in the air medium to reach the different desired concentrations. […] Images were generated from integrated photon counts over 25 min every 30 min using Metamorph software (Molecular Devices). […] Exported images were composed into image stacks and were quantified in a time series using a custom script in NIH ImageJ software, applying the “Multi Measure” plugin.

TNS1 = TNS1 (Homo sapiens, UniProt Q9HBL0); assay: TPP in intact U2OS cells; format: binding; details: vs vehicle
F-box protein 21 (FBX21) = F-box protein 21 (FBX21) (Homo sapiens, UniProt O94952); assay: TPP in intact U2OS cells; format: binding; details: vs vehicle
Sequence of F-box protein 21 (FBX21) (O94952 whole entry): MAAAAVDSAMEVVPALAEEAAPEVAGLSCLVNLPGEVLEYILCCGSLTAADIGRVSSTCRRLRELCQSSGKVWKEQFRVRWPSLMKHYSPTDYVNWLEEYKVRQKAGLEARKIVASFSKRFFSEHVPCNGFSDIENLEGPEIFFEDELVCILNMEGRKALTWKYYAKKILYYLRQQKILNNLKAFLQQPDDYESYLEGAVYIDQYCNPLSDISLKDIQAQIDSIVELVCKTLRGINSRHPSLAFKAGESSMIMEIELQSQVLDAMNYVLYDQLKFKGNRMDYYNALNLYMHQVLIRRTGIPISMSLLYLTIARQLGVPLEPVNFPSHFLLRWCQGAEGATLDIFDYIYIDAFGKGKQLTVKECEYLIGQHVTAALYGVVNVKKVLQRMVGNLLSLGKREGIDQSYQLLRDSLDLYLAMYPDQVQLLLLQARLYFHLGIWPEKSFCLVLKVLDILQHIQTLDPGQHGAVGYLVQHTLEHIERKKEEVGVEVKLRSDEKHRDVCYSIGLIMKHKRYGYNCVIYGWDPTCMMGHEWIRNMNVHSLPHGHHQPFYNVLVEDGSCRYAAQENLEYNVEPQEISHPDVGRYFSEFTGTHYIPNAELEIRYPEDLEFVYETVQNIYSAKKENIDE

NFU1 = NFU1 (Homo sapiens, UniProt Q9UMS0); assay: TPP in intact U2OS cells; format: binding; details: vs vehicle
Sequence of NFU1 (Q9UMS0 10-254): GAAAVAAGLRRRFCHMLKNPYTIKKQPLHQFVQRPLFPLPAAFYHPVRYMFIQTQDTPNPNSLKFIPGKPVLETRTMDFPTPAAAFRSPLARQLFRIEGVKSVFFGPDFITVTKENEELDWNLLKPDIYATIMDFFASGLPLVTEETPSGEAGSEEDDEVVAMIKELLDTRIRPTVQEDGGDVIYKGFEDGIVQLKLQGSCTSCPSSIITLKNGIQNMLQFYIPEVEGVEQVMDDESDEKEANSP

[1] = molecular target: Rab GTPase-binding effector protein 1 (RABEP1) (Homo sapiens, UniProt Q15276); assay: TPP in intact U2OS cells; details: vs vehicle
Sequence of Rab GTPase-binding effector protein 1 (RABEP1) (Q15276 whole entry): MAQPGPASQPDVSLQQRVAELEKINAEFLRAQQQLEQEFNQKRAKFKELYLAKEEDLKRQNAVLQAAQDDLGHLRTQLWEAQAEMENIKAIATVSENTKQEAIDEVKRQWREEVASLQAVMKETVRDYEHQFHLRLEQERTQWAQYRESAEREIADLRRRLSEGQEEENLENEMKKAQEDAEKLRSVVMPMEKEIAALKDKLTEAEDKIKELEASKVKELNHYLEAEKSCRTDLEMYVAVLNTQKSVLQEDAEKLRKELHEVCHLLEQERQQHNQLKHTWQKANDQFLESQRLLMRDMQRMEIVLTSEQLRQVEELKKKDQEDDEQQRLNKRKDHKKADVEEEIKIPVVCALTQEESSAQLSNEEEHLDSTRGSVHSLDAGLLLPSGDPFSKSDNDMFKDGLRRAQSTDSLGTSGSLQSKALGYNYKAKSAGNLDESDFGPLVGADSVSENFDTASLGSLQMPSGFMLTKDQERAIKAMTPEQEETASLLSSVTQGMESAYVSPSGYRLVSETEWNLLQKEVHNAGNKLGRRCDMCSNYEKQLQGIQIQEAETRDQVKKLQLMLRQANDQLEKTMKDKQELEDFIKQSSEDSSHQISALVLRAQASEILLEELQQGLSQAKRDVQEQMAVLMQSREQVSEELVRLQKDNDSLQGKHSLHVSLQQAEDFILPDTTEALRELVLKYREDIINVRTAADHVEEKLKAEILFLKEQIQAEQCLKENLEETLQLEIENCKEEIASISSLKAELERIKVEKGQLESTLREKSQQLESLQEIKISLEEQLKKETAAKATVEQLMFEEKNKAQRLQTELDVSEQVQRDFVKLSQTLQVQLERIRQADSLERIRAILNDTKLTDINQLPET

CK1d = molecular target: T1, CK1d (Homo sapiens, UniProt P48730); assay: Radiometric HotSpot kinase assay; format: biochemical; details: n = 3, remaining activity vs DMSO, read-out: Enzyme activity (%) CK1d
T1 construct: purchased Reaction Biology
Experimental: (§1) In brief, specific kinase/substrate pairs were mixed in a buffer containing 20 mM Hepes (pH 7.5), 10 mM MgCl2, 1 mM EGTA, 0.02% Brij35, 0.02 mg/ml BSA, 0.1 mM Na3VO4, 2 mM DTT, and 1% DMSO. […] After a 20-min incubation, ATP (cat. no. A7699; Sigma-Aldrich) and [γ-^33P] ATP (cat. no. NEG602H001MC; PerkinElmer) were added at a final total concentration of […].

CAMK2d = molecular target: T2, CAMK2d (Homo sapiens, UniProt Q13557); assay: Radiometric HotSpot kinase assay; format: biochemical; details: 100 μM, n = 3; remaining activity vs DMSO; read-out: Enzyme activity (%) CAMK2d
T2 construct: purchased Reaction Biology
Experimental: as §1

CDK2 = molecular target: T3, CDK2 (Homo sapiens, UniProt P24941); assay: Radiometric HotSpot kinase assay; format: biochemical; details: n = 3, remaining activity vs DMSO, read-out: Enzyme activity (%) CDK2
T3 construct: purchased Reaction Biology
Experimental: as §1

CDK7 = molecular target: T4, CDK7 (Homo sapiens, UniProt P50613); assay: Radiometric HotSpot kinase assay; format: biochemical; details: 100 μM, n = 3; remaining activity vs DMSO; read-out: Enzyme activity (%) CDK7
T4 construct: purchased Reaction Biology
Experimental: as §1

ERK1/MAPK3 = molecular target: T5, ERK1/MAPK3 (Homo sapiens, UniProt P27361); assay: Radiometric HotSpot kinase assay; format: biochemical; details: 100 μM, n = 3; remaining activity vs DMSO; read-out: Enzyme activity (%) ERK1/MAPK3
T5 construct: purchased Reaction Biology
Experimental: as §1

MST4/STK26 = molecular target: T6, MST4/STK26 (Homo sapiens, UniProt Q9P289); assay: Radiometric HotSpot kinase assay; format: biochemical; details: 100 μM, n = 3; remaining activity vs DMSO; read-out: Enzyme activity (%) MST4/STK26
T6 construct: purchased Reaction Biology
Experimental: as §1

ERK2/MAPK1 = molecular target: T7, ERK2/MAPK1 (Homo sapiens, UniProt P28482); assay: Radiometric HotSpot kinase assay; format: biochemical; details: 100 μM, n = 3; remaining activity vs DMSO; read-out: Enzyme activity (%) ERK2/MAPK1
T7 construct: purchased Reaction Biology
Experimental: as §1

TNIK = molecular target: T8, TNIK (Homo sapiens, UniProt Q9UKE5); assay: Radiometric HotSpot kinase assay; format: biochemical
T8 construct: purchased Reaction Biology
Experimental: as §1

CK2a = molecular target: T9, CK2a (Homo sapiens, UniProt P68400); assay: Radiometric HotSpot kinase assay; format: biochemical; details: 100 μM, n = 3; remaining activity vs DMSO; read-out: Enzyme activity (%) CK2a
T9 construct: purchased Reaction Biology
Experimental: as §1

DYNC1I2 = DYNC1I2 (Homo sapiens, UniProt Q13409); assay: TPP in intact U2OS cells; format: binding; details: vs vehicle
Sequence of DYNC1I2 (Q13409 whole entry): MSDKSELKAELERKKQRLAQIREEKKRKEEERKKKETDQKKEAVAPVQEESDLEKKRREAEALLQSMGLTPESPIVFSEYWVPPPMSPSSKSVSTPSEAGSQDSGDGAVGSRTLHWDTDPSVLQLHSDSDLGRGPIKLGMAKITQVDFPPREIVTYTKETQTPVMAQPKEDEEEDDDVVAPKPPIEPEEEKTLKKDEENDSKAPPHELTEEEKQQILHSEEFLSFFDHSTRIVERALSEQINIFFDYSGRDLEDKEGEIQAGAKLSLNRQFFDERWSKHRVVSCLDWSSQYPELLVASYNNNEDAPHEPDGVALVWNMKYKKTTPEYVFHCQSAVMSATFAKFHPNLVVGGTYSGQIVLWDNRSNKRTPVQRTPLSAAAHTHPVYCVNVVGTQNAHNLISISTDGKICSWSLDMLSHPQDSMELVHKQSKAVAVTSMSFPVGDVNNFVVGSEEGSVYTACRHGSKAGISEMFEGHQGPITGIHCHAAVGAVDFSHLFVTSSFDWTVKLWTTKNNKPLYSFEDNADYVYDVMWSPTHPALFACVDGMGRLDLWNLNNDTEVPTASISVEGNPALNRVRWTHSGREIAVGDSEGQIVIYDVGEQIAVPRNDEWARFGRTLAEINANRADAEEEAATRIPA

RPL37 = RPL37 (Homo sapiens, UniProt P61927); assay: TPP in intact U2OS cells; format: binding; details: vs vehicle
CYCS = CYCS (Homo sapiens, UniProt P99999); assay: TPP in intact U2OS cells; format: binding; details: vs vehicle
Sequence of CYCS (P99999 whole entry): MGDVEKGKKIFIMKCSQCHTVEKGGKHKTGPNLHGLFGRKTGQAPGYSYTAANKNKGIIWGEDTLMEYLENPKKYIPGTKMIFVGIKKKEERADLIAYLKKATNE

[2] = molecular target: Cleavage stimulation factor subunit 2 tau variant (CSTF2T) (Homo sapiens, UniProt Q9H0L4); assay: TPP in intact U2OS cells; format: binding; details: vs vehicle
SARS2 = SARS2 (Homo sapiens, UniProt Q9NP81); assay: TPP in intact U2OS cells; format: binding
Sequence of SARS2 (Q9NP81 35-518): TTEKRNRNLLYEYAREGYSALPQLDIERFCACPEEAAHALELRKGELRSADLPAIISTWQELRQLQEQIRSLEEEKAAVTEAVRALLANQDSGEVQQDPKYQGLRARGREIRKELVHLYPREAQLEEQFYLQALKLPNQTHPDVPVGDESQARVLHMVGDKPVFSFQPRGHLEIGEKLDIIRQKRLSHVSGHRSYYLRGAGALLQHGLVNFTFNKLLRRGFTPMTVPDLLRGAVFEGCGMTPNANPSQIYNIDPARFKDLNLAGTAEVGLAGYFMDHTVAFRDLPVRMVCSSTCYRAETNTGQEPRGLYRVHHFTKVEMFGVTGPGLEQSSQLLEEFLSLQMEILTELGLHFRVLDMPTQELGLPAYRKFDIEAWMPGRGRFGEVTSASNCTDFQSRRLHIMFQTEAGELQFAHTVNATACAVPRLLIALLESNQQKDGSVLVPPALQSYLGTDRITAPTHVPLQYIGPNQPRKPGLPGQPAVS

Per2-dLuc U2OS cells = assay: Circadian luminescence period assay, Per2-dLuc U2OS cells; format: cell-based, human; details: 7 μM, mean ± SEM, control 24.2 ± […]
Experimental: Per2-dLuc U2OS osteosarcoma and Bmal1-dLuc U2OS osteosarcoma reporter cell lines were gifts from Dr Andrew Liu, University of Memphis, USA ([Liu et al, 2008]). […] The cells were cultured at 37°C, 5% CO2 in a standard humidified incubator.

PSMG4 = PSMG4 (Homo sapiens, UniProt Q5JS54); assay: TPP in intact U2OS cells; format: binding; details: vs vehicle
Sequence of PSMG4 (Q5JS54 whole entry): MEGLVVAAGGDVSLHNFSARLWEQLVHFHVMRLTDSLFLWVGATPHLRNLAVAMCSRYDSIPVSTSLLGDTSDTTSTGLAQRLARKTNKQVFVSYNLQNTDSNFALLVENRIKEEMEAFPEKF

Sequence of TNS1 (Q9HBL0 whole entry): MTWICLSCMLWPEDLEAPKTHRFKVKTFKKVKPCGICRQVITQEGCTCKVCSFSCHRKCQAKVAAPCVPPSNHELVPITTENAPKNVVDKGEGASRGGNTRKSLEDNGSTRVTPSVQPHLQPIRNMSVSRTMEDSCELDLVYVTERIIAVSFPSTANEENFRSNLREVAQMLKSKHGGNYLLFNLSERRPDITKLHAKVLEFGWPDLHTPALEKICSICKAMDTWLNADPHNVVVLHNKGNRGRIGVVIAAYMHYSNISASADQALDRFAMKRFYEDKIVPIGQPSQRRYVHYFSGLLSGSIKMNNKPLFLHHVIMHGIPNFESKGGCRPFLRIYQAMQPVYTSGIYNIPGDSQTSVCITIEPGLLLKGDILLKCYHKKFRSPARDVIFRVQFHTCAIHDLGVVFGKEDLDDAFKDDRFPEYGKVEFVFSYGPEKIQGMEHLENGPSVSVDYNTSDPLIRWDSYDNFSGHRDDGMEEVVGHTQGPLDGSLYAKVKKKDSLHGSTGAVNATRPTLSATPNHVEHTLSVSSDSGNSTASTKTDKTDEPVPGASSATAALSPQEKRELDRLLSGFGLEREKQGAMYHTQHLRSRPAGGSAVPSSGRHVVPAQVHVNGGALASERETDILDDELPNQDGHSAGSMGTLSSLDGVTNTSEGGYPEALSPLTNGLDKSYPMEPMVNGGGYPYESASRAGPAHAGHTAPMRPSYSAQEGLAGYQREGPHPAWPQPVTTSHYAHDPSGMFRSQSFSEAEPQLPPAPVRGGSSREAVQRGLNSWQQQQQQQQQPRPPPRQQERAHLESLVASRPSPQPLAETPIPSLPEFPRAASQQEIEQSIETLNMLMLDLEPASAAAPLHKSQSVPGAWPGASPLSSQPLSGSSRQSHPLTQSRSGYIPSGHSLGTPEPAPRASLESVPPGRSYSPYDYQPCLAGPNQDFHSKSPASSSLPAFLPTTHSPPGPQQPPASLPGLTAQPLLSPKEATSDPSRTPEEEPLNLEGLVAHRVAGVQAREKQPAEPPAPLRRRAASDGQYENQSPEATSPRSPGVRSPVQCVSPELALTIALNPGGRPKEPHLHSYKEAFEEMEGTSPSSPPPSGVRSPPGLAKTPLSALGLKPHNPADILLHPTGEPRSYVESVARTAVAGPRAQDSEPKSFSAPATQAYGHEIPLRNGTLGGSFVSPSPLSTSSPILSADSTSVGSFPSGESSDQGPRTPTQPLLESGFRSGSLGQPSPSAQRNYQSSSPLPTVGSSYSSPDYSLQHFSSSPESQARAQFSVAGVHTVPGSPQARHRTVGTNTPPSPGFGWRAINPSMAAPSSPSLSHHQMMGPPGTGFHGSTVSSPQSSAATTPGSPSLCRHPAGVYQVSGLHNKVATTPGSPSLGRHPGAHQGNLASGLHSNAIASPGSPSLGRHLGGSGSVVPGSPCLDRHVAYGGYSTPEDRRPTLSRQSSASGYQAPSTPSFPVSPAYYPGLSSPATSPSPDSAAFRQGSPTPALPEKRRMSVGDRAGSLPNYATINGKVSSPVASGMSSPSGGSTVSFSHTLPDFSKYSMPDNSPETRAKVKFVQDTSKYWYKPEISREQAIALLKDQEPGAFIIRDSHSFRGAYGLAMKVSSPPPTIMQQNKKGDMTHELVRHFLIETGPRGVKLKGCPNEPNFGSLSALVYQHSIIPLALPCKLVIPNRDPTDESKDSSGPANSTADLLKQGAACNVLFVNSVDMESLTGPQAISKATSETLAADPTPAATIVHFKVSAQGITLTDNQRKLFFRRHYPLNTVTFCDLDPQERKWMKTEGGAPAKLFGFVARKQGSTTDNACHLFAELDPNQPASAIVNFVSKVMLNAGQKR

`Oc1c2ccccc2c2c3c(cccc13)N=N2` [SP600125] was tested, and the “Effect on period length in cyanobacteria” value (Synechococcus elongatus) was “do not affect period length”, the ΔTm at 10 µM (TNS1; Rep1, read-out: + Tm shift TNS1, Rep1) was 1.1 °C and the ΔTm at 10 µM (TNS1; Rep2, read-out: + Tm shift TNS1, Rep2) was 1.6 °C. The ΔTm at 10 µM (F-box protein 21 (FBX21); Rep1, read-out: + Tm shift FBX21, Rep1) was 3.2 °C, the ΔTm at 10 µM (F-box protein 21 (FBX21); Rep2, read-out: + Tm shift FBX21, Rep2) was 2.3 °C and the ΔTm at 10 µM (NFU1; Rep1, read-out: + Tm shift NFU1, Rep1) was 1.3 °C. For the same molecule, the ΔTm at 10 µM (NFU1; Rep2, read-out: + Tm shift NFU1, Rep2) was 1.2 °C, the ΔTm at 10 µM ([1]; Rep1, read-out: + Tm shift RABEP1, Rep1) was 3.5 °C and the ΔTm at 10 µM ([1]; Rep2, read-out: + Tm shift RABEP1, Rep2) was 4.4 °C. For the same molecule, the remaining activity at 100 µM (CK1d) was 0.9%, the remaining activity at 100 µM (CAMK2d) was 14.7% and the remaining activity at 100 µM (CDK2) was 5.3%. It also gave a remaining activity at 100 µM (CDK7) of 13.2%, a remaining activity at 100 µM (ERK1/MAPK3) of 76.7% and a remaining activity at 100 µM (MST4/STK26) of 14.4%. For the same molecule, the remaining activity at 100 µM (ERK2/MAPK1) was 70.7%, the remaining activity at 100 µM (TNIK; 100 μM, n = 3, remaining activity vs DMSO, read-out: Enzyme activity (%) TNIK) was 1.1% and the IC50 (TNIK; 10-dose, threefold serial dilution starting at 100 μM) was < 500 nM. The remaining activity at 100 µM (CK2a) was 5.7%, the ΔTm at 10 µM (DYNC1I2; Rep1, read-out: + Tm shift DYNC1I2, Rep1) was 2.5 °C and the ΔTm at 10 µM (DYNC1I2; Rep2, read-out: + Tm shift DYNC1I2, Rep2) was 0.8 °C. For the same molecule, the ΔTm at 10 µM (RPL37; Rep1, read-out: + Tm shift RPL37, Rep1) was 2.9 °C, the ΔTm at 10 µM (RPL37; Rep2, read-out: + Tm shift RPL37, Rep2) was 2.1 °C and the ΔTm at 10 µM (CYCS; Rep1, read-out: + Tm shift CYCS, Rep1) was 1 °C. It also gave a ΔTm at 10 µM (CYCS; Rep2, read-out: + Tm shift CYCS, Rep2) of 1 °C, a ΔTm at 10 µM ([2]; Rep1, read-out: + Tm shift CSTF2T, Rep1) of 1.3 °C and a ΔTm at 10 µM ([2]; Rep2, read-out: + Tm shift CSTF2T, Rep2) of 1.8 °C. For the same molecule, the ΔTm at 10 µM (SARS2; read-out: + Tm shift SARS2, Rep1) was 1.2 °C, the ΔTm at 10 µM (SARS2; read-out: + Tm shift SARS2, Rep2) was 1.3 °C and the Circadian period length (Per2-dLuc U2OS cells) was 28.6 ± 0.1 h. It also gave a ΔTm at 10 µM (PSMG4; Rep1, read-out: + Tm shift PSMG4, Rep1) of 3.4 °C and a ΔTm at 10 µM (PSMG4; Rep2, read-out: + Tm shift PSMG4, Rep2) of 3.5 °C.
